Reference: PubChem BioAssay (NCI)
Values joined by “and” are separate entries in the source; they are usually repeats but may differ in a detail not shown here. Identical values can stand only once.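 Values below derive from 48-hour exposures of cells grown in 96-well plates, with endpoints linearly interpolated between the two concentrations bracketing the appropriate inhibition level. GI50: concentration for 50% inhibition of growth. TGI marks complete inhibition of growth.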

What was measured:
Experiment in all cases: inhibition of tumour cell growth, NCI panel, 48 h
[1] = system: A549 NSCLC
[2] = system: LOX IMVI melanoma
[3] = system: MALME-3M melanoma
[4] = system: MDA-MB-435
[5] = system: NCI-H226 lung
[6] = system: NCI-H460 lung
[7] = system: OVCAR-4 ovarian
[8] = system: SK-MEL-2 melanoma
[9] = system: SK-MEL-5 melanoma
[10] = system: SW-620 colon

| SMILES | TGI [1] | TGI [2] [µM] | TGI [3] | GI50 [4] | TGI [4] [µM] | TGI [5] | TGI [6] | TGI [7] | TGI [8] | GI50 [9] [µM] | TGI [9] [µM] | TGI [10] [µM] | GI50 [1] | GI50 [2] | GI50 [3] | GI50 [5] | GI50 [6] | GI50 [7] | GI50 [8] | GI50 [10] |
| --- | --- | --- | --- | --- | --- | --- | --- | --- | --- | --- | --- | --- | --- | --- | --- | --- | --- | --- | --- | --- |
| CC(C)(C)c1cc(C(=O)O)c2c(c1)C(=O)OC2(c1ccccc1)c1ccccc1C(=O)O (configuration not stated) | > 100 µM | > 100 | > 100 µM | > 100 µM | > 100 | > 100 µM | > 100 µM | > 100 µM | > 100 µM | > 100 | > 100 | > 100 |  |  |  |  |  |  |  |  |
| COc1ccc(/C=N\Nc2nc(SCC(C)C)nc(-c3ccc(OC)cc3)c2C#N)cc1 | 16.2 µM | 75.2 | 47.9 µM | 17.9 µM | > 100 | 49.7 µM | 11 µM | 1.83 µM | 39.7 µM | 13.6 | 51.2 | > 100 | 0.524 µM | 18.2 µM | 10.2 µM | 10.5 µM | 0.548 µM | 0.417 µM | 17.2 µM | 5.15 µM |
| N#Cc1c(NC(=O)c2ccccc2F)sc2c1CCCC2 | > 25 µM | > 25 | > 25 µM | 1.31 µM | > 12.1 | > 25 µM | > 25 µM | > 25 µM | > 25 µM | > 22 | > 25 | > 25 | > 25 µM | > 25 µM | > 25 µM | > 25 µM | > 19.5 µM | > 25 µM | > 25 µM | 8.77 µM |
| COc1ccc(-c2[nH]c3ccccc3c2/C=C(\C#N)S(=O)(=O)c2ccccc2)cc1 | > 35.5 µM | > 100 | > 82 µM | 0.204 µM | 0.642 | > 66.4 µM | > 100 µM | > 31.8 µM | > 21.8 µM | 0.343 | 2.73 | > 100 | 0.759 µM | 1.23 µM | 1.22 µM | 2.02 µM | 0.404 µM | 0.559 µM | 4.79 µM | 0.503 µM |
| Nc1nc(C(=O)O)c(N=Nc2ccccc2)c(=O)[nH]1 | > 100 µM | > 100 | > 100 µM |  | > 100 | > 100 µM | > 100 µM | > 100 µM | > 100 µM |  | > 100 | > 100 |  |  |  |  |  |  |  |  |
| N#CCNC(=O)c1ccc(-c2ccnc(Nc3ccc(N4CCOCC4)cc3)n2)cc1 | > 10 µM and 12.4 µM | > 44.9 | > 10 µM and 18.1 µM | 4.75 µM and 2.82 µM | > 100 | 7.01 µM and 21.1 µM | > 10 µM and 11.3 µM | > 10 µM and 44.9 µM | > 10 µM and 19 µM | 4.61 | 38.7 | > 100 | 4.47 µM and 1.75 µM | 1.74 µM and 1.35 µM | 6.44 µM and 1.26 µM | 0.754 µM and 0.531 µM | 2.5 µM and 1.36 µM | 5.94 µM and 13.3 µM | 3.97 µM and 2.48 µM | 3.97 µM and 3.46 µM |
| O=S(=O)(NCCCNc1nccc(-c2c(-c3ccc(F)cc3)nc3sccn23)n1)c1ccc(F)cc1 | > 100 µM | > 100 | 94.4 µM | 3.69 µM | > 100 | 77.5 µM | > 100 µM | 26.7 µM | > 100 µM | 4.63 | 57.9 | > 100 | 4.87 µM | 6.28 µM | 9.06 µM | 4.76 µM | 5.62 µM | 3.53 µM | 23.2 µM | 33.2 µM |
| S=C(NCc1ccc2c(c1)OCO2)N1CCN(c2ncnc3c2oc2ccccc23)CC1 | > 100 µM | > 100 | > 100 µM | 8.16 µM | > 100 | > 100 µM | > 100 µM | > 100 µM | > 100 µM | 0.575 | 3.28 | > 100 | 7.24 µM | > 100 µM | > 100 µM | 3.25 µM | 6.85 µM | 0.451 µM | 50.3 µM | > 100 µM |
| COc1c(CC=C(C)C)c(O)c(C(CC(C)C)c2c(O)c(CC=C(C)C)c(O)c(C(C)=O)c2O)c(O)c1C(C)=O (configuration not stated) | 12.1 µM | 3.59 | 6.45 µM |  | 6.47 | 10.6 µM | 10.2 µM | 14.4 µM | 1.94 µM |  | 5.04 | 5.8 |  |  |  |  |  |  |  |  |
| Cc1cc(O)c2c3c(ccc2c1)C(=O)c1c(O)cccc1C3=O | > 100 µM | > 100 | 0.0846 µM |  | 0.341 | > 100 µM | > 27 µM | 29.8 µM | > 100 µM |  | 1.4 | > 100 |  |  |  |  |  |  |  |  |
| c1ccc(CN2COc3c(ccc4c5c(ccc34)CN(Cc3ccccc3)CO5)C2)cc1 | > 100 µM | > 100 | > 100 µM |  | > 100 | > 100 µM | > 100 µM | > 100 µM | > 100 µM |  | > 100 | > 100 |  |  |  |  |  |  |  |  |
